Converted amounts (≈) assume the structure as drawn.
How the values were obtained:
[1] = Solubility and stability of form A in water; format: physicochemical; details: 22±2° C.
Method: 104 mg of raltegravir sodium salt form A is suspended in 1.0 ml water and the suspension placed on a laboratory shaker at 22±2° C. for 24 hours at a rate of 400 rpm. After 24 hours shaking the suspension is filtered, the obtained solid investigated by powder X-ray diffraction, and the concentration in the liquid phase is determined by UV-vis spectroscopy.

[2] = Storage of form A at elevated temperature; format: physicochemical

Cc1nnc(C(=O)NC(C)(C)c2nc(C(=O)NCc3ccc(F)cc3)c(O)c(=O)n2C)o1 [form A, N-(4-fluorobenzyl)-5-hydroxy-1-methyl-2-(1-methyl-1-{[(5-methyl-1,3,4-oxadiazol-2-yl)carbonyl]amino}ethyl)-6-oxo-1,6-dihydropyrimidine-4-carboxamide]
solubility ([1]; 22 °C, thermodynamic from solid, suspended in water, 24 hours shaking, resulting pH 10.4, UV-vis, read-out: aqueous solubility (concentration in the liquid phase)): 47 ± 5 mg/mL (≈ 106 mM) | crystalline form of the solid after suspension in water (XRPD) ([1]; suspension in water, 24 hours): form A is retained | pH of the liquid phase ([1]; suspension in water, 24 hours): 10.4 | crystalline form of the solid after suspension in water (XRPD) ([1]; suspension in water, 24 hours, listed as raltegravir sodium salt form A): crystalline form A is retained | thermal stability on storage [2]: without decomposition

From patent publication US9458146B2, “Crystalline sodium salt of an HIV integrase inhibitor” (SANDOZ AG, priority 2011, dated 2016)
